Results as given in US20230312564A1, “AROMATIC RING-LACTAM COMPOUND, PREPARATION METHOD THEREFOR AND USE THEREOF” (SHANGHAI RINGENE BIOPHARMA CO., LTD., priority 2020, published 2023).
Read-outs that look alike come from different tables or passages of the source.

What was measured:
[1] = molecular target: T1, ERK1/2 kinase; test: ERK1/2 kinase (Carna) inhibitory activity, Caliper mobility shift; format: biochemical; details: for IC50: read-out: ERK½ IC50
T1 construct: fused on or other part: Carna's ERK products carry a GST tag by vendor knowledge
In short: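 Compounds tested from 10 μM top concentration, 3-fold dilutions to 10 points, in duplicate, in 1× kinase buffer; Caliper mobility-shift readout.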

[2] = system: Colo-205 cells; test: Colo-205 tumor cell proliferation, CCK-8, 72 hours; format: cell-based; details: for IC50: 72 hours, CCK-8, read-out: Colo-205 IC50; for cell proliferation inhibitory activity (in words): Colo-205
[3] = system: Colo-205 transplanted tumor; test: Growth inhibition of nude mice Colo-205 transplanted tumor; format: in vivo
Method: The tumor tissue in the vigorous growth phase was cut into about 1.5 mm^3 and inoculated subcutaneously in the right axilla of nude mice under sterile conditions. The diameter of subcutaneous transplanted tumors in nude mice was measured with a vernier caliper, and the mice were randomly divided into groups when the average tumor volume reached about 130 mm^3. The embodiment compounds (injection water containing 1% Tween 80 were configured to a desired concentration for later use) were orally administered daily at a given dose for three consecutive weeks, and the solvent control group was administered with the same amount of solvent. During the whole test, the diameter of transplanted tumor was measured twice a week, and the mice were weighed at the same time. The calculation formula of tumor volume (TV) is expressed as TV=1/2×a×b^2, wherein a and b represent length and width, respectively. The relative tumor volume (RTV) was calculated according to the measurement results, and the calculation formula is RTV=Vt/V0, wherein V0 is the tumor volume measured when administered in separate cages (i.e., d0), and Vt is the tumor volume at the time of each measurement.

[4] = system: p-ERK in MiaPaca-2; test: p-ERK feedback upregulation in MiaPaca-2 tumor cells; format: cell-based; details: acting on MiaPaca-2
[5] = Liver microsomal metabolic stability, rat; format: in vitro ADME; details: 0.5 mg/mL microsomes, 1 μM compound, NADPH
Method: (§1) The reaction was stopped with tinidazole-containing acetonitrile at 0 min, 5 min, 10 min and 30 min, respectively. After vortexing for 10 min and centrifuging at 15,000 rmp for 10 min, 50 μL of the supernatant was injected into a 96-well plate. The metabolic stability of the compound was calculated by determining the relative reduction of the drug, calculated as half-life T1/2.

[6] = Liver microsomal metabolic stability, dog; format: in vitro ADME; details: 0.5 mg/mL microsomes, 1 μM compound, NADPH
Method: as §1

[7] = Liver microsomal metabolic stability, human; format: in vitro ADME; details: 0.5 mg/mL microsomes, 1 μM compound, NADPH
Method: as §1

[8] = Liver microsomal metabolic stability, mouse; format: in vitro ADME; details: 0.5 mg/mL microsomes, 1 μM compound, NADPH
Method: as §1

[9] = Liver microsomal stability, comparisons in words across species; format: in vitro ADME
Method: as §1

[10] = molecular target: T2, CYP1A2 (Homo sapiens, UniProt P05177); test: Direct inhibition test (DI test) in human liver microsomes, CYP1A2
T2 sequence (P05177 1-516): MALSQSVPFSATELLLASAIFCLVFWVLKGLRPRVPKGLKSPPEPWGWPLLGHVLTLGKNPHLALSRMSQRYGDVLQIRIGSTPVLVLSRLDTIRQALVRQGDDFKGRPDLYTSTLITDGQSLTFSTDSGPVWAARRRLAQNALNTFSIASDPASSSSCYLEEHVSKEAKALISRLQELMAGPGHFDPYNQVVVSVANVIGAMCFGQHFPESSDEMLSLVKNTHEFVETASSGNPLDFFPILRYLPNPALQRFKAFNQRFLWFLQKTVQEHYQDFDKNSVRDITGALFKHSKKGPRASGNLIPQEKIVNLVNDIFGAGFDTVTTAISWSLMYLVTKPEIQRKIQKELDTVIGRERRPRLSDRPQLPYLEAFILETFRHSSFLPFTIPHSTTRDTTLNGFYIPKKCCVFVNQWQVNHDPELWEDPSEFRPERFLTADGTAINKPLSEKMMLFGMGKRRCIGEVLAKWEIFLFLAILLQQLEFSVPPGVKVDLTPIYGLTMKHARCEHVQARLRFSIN
Method: (§2) (2) Direct inhibition test (DI test): A system containing 100 μL of human liver microsomes (final concentration of 0.2 mg/mL) was subjected to a direct inhibition incubation, and the system contained NADPH (final concentration of 1 mM), 10 μM compound, positive inhibitor cocktail (10 μM ketoconazole, 10 μM quinidine, 100 μM sulfaphenazole, 10 μM α-naphthoflavone, 1,000 μM tranylcypromine), negative control (BPS of 0.1% DMSO), and mixed probe substrates (10 μM midazolam, 100 μM testosterone, 10 μM dextromethorphan, […], 100 μM phenacetin, 100 μM mephenytoin). After 20 minutes of incubation, the reaction was stopped. The relative activity of the enzyme was calculated by measuring the relative production of metabolites.

[11] = molecular target: CYP2C8 (Homo sapiens, UniProt P11712); test: Direct inhibition test (DI test) in human liver microsomes, CYP2C8; format: in vitro ADME
CYP2C8, sequence (P11712 whole entry): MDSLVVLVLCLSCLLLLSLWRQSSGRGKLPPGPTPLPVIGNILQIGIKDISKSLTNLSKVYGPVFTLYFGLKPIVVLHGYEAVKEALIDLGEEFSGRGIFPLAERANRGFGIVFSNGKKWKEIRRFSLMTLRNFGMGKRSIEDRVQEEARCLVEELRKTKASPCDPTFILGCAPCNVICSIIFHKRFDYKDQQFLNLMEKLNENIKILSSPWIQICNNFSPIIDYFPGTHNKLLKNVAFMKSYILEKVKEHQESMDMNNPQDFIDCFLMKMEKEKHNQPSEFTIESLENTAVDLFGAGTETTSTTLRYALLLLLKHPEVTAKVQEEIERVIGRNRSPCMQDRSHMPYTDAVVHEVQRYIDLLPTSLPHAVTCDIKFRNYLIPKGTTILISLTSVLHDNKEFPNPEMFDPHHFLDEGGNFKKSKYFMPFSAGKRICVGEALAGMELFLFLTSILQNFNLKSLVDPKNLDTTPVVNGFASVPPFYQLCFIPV

[12] = molecular target: T3, CYP2C19 (Homo sapiens, UniProt P33261); test: Direct inhibition test (DI test) in human liver microsomes, CYP2C19; format: in vitro ADME
T3 construct: A system containing 100 μL of human liver microsomes; from tissue; host or cells: human liver microsomes
T3 sequence (P33261 whole entry): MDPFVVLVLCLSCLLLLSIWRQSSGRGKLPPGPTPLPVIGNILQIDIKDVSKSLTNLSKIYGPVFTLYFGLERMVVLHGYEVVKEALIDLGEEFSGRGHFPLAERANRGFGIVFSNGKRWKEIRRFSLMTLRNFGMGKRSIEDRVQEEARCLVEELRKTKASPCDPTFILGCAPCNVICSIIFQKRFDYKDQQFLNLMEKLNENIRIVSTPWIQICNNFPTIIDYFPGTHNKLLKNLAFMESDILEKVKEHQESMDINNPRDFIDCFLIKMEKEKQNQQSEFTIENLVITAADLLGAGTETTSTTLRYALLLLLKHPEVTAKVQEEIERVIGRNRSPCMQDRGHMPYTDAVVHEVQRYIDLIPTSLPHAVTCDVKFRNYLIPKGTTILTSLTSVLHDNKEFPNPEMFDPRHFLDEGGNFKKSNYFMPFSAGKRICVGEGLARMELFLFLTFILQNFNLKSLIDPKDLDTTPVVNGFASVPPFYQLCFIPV
Method: as §2

[13] = molecular target: T4, CYP3A4 (Homo sapiens, UniProt P08684); test: Direct inhibition test (DI test) in human liver microsomes, CYP3A4; format: in vitro ADME
T4 construct: A system containing 100 μL of human liver microsomes; from tissue; host or cells: human liver microsomes
T4 sequence (P08684 whole entry): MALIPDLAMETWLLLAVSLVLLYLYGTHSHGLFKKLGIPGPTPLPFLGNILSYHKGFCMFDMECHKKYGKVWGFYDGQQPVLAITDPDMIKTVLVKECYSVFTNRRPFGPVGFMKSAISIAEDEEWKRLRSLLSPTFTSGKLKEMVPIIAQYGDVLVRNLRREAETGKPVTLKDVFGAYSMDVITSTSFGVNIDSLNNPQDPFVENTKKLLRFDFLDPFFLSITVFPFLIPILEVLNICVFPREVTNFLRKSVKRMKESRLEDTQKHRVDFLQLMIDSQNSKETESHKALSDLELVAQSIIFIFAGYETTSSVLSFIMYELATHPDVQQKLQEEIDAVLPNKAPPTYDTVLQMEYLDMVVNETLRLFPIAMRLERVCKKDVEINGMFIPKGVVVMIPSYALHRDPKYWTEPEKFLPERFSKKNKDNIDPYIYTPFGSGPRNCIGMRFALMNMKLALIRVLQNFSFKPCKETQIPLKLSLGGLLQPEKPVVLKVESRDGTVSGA
Method: as §2

[14] = molecular target: T5, CYP2D6 (Homo sapiens, UniProt P10635); test: Direct inhibition test (DI test) in human liver microsomes, CYP2D6; format: in vitro ADME
T5 construct: A system containing 100 μL of human liver microsomes; from tissue; host or cells: human liver microsomes
T5 sequence (P10635 whole entry): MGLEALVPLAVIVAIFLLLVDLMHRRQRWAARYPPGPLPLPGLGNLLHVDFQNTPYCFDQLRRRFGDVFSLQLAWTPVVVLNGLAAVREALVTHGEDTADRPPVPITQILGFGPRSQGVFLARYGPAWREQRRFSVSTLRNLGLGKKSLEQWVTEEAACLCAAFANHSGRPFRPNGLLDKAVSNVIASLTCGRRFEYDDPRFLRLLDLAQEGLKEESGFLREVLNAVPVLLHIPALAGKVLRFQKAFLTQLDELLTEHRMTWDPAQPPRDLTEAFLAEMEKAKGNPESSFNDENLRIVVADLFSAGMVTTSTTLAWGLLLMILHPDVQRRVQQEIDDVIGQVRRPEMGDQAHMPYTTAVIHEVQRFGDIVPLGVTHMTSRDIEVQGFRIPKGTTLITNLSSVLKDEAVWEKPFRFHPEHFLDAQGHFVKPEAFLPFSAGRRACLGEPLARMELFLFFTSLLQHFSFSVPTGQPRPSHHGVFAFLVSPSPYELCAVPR
Method: as §2

[15] = In-vivo pharmacokinetic parameters in mice; set-up: species or system Balb-c mice
In short: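 Male SD rats or Balb-c mice were dosed intravenously at 1 mg/kg or orally at 5 mg/kg. Jugular-vein plasma was sampled up to 24 h and analysed by LC-MS/MS. Non-compartmental analysis gave AUC, MRT, Cmax, Tmax, T1/2, Vd and oral bioavailability (F).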

[16] = Homo sapiens, COLO 205, numeric values
[17] = liver microsomes, read-out: Liver microsomal stability T1/2
[18] = male, Balb-c, mouse, plasma, IV, 1 mg/kg
[19] = male, Balb-c, mouse, plasma, PO, 5 mg/kg

IC50 [2, 16] [µM] | IC50 ([1]; numeric values) [µM] | IC50 [10] [µM] | IC50 at 20 min [11] [µM] | IC50 [12] [µM] | IC50 [13] [µM] | IC50 [14] [µM] | SMILES | enzyme inhibitory activity (in words) [1] | cell proliferation inhibitory activity (in words) [2] | other results
0.28 | – | – | – | – | – | – | CC(C)Nc1cc(-c2c[nH]c(C(=O)N[C@H](CO)c3cccc(Cl)c3)c2)c(Cl)cn1 [BVD523, reference compound] | – | – | IC50 ([1]; class symbols): < 0.01 µM; T/C ([3]; 50 mg/kg, qdx21, po): 48.5%; Initial weight (D0) ([3]; 50 mg/kg, qdx21, po, D0): 19.8 g; Terminal weight (D21) ([3]; 50 mg/kg, qdx21, po, D21): 19.0 g; Initial tumor volume ([3]; 50 mg/kg, qdx21, po, initial): 97 ± 14 mm^3; Terminal tumor volume ([3]; 50 mg/kg, qdx21, po, terminal): 471 ± 198 mm^3; p-ERK upregulation (in words) [4]: will cause p-ERK feedback upregulation
0.0333 | 0.0008 | > 10 | > 10 | > 10 | > 10 | > 10 | COc1cc(F)cc([C@@H](CO)NC(=O)[C@@H](C)N2Cc3ccc(-c4nc(NC5CCOCC5)ncc4Cl)nc3C2=O)c1 [Embodiment 18] | extremely strong enzyme inhibitory activity | strong cell proliferation inhibitory activity | half-life at 1 μM [5, 17]: 16 min; half-life at 1 μM [6, 17]: 32 min; half-life at 1 μM [7, 17]: 12 min; half-life at 1 μM [8, 17]: 32 min; stability in liver microsomes (in words) ([9]; mouse, rat and human, compared with comparative compound 5): significantly improved; F ([15]; PO 5 mg/kg vs IV 1 mg/kg): 25%; AUC(0-inf) [15, 18]: 0.202 µM·h; AUC(0-t) [15, 18]: 0.198 µM·h; MRT inf [15, 18]: 30 min; clearance [15, 18]: 144 mL/min/kg; half-life [15, 18]: 72 min; Vd ([15]; male, Balb-c, mouse, plasma, IV, 1 mg/kg, read-out: Vss): 3.9 L/kg; AUC(0-inf) [15, 19]: 0.257 µM·h; AUC(0-t) [15, 19]: 0.253 µM·h; Cmax [15, 19]: 289 nM; Tmax [15, 19]: 24 min; half-life [15, 19]: 42 min
– | 0.0009 | – | – | – | – | – | Cc1cccc([C@@H](CO)NC(=O)[C@@H](C)N2Cc3ccc(-c4nc(NC5CCOCC5)ncc4F)c(F)c3C2=O)c1 [Embodiment 31] | extremely strong enzyme inhibitory activity | strong cell proliferation inhibitory activity | IC50 ([2]; numeric values): 0.0174 µM; Liver microsomal stability T1/2 [5]: 17 min; Liver microsomal stability T1/2 [6]: 122 min; Liver microsomal stability T1/2 [7]: 13 min; Liver microsomal stability T1/2 [8]: 17 min; stability of different kinds of liver microsomes (in words) ([9]; different species, versus the comparative compounds): significant advantages; IC50 ([10]; microsomes): > 10 µM; effect on the tumor weight (in words) ([3]; dose of 50 mg/kg or 25 mg/kg): no significant effect on the tumor weight; tumor growth of Colo-205 transplanted tumor nude mice (in words) ([3]; dose of 50 mg/kg or 25 mg/kg): significantly inhibited the tumor growth
– | < 0.001 | > 10 | > 10 | > 10 | > 10 | > 10 | COc1cc(F)cc([C@@H](CO)NC(=O)[C@@H](C)N2Cc3ccc(-c4nc(NC5CCOC5)ncc4F)c(F)c3C2=O)c1 (some centres unmarked) [Embodiment 42] | – | strong cell proliferation inhibitory activity | IC50 ([2]; Homo sapiens, COLO 205, class symbols): < 0.1 µM
0.0183 | – | > 10 | > 10 | > 10 | > 10 | > 10 | COc1cc(F)cc([C@@H](CO)NC(=O)[C@@H](C)N2Cc3ccc(-c4nc(NC5CCC(F)(F)CC5)ncc4F)c(F)c3C2=O)c1 [Embodiment 44] | – | strong cell proliferation inhibitory activity | IC50 ([1]; class symbols): < 0.01 µM
0.0162 | < 0.001 | > 10 | > 10 | > 10 | > 10 | > 10 | C[C@H](C(=O)N[C@H](CO)c1cccc(F)c1)N1Cc2ccc(-c3nc(NC4CCOCC4)ncc3F)c(F)c2C1=O [Embodiment 46] | – | – | –
0.0192 | < 0.001 | > 10 | > 10 | > 10 | > 10 | > 10 | C[C@H](C(=O)N[C@H](CO)c1ccc(F)c(Cl)c1)N1Cc2ccc(-c3nc(NC4CCOCC4)ncc3F)c(F)c2C1=O [Embodiment 48] | – | strong cell proliferation inhibitory activity | –
0.0174 | < 0.001 | > 10 | > 10 | > 10 | > 10 | > 10 | [2H]C([2H])([2H])Oc1cc(F)cc([C@@H](CO)NC(=O)[C@@H](C)N2Cc3ccc(-c4nc(NC5CCOCC5)ncc4F)c(F)c3C2=O)c1 [Embodiment 49] | extremely strong enzyme inhibitory activity | strong cell proliferation inhibitory activity | –
